The results in this text go back to patent EP0360850B1, “ANTIMICROBIAL AGENTS” (GIVAUDAN-ROURE (INTERNATIONAL) S.A., priority 1988, dated 1989).

The test system of one assay is Aspergillus niger. The assay is described as follows: Preservative test in cosmetic lotion, weekly reinoculation. To be noted: A.n. It counts as cell-based. How it is done:
(§1) a. Cutting Oil Emulsions. […] Various aliquots of a 6% solution of the test compound in ethanol were added to cutting oil emulsions prepared by diluting Kutwell® 30 cutting oil concentrate 1 to 30 with water. These samples were inoculated with a culture of Ps. aeruginosa and incubated at 28°C on a rotary shaker. At weekly intervals, the samples were examined for microorganisms and then reinoculated and incubated. […] Cosmetic compositions. […] Serial dilutions of the compounds in dimethylformamide were added to a prepared, sterile cosmetic lotion of the following composition:
(§2) Samples of the lotion containing varying levels of the acrylonitrile derivatives were divided into two portions; one portion was inoculated with a spore suspension of A. niger, and the other portion with a 24-hour nutrient broth culture of Ps. aeruginosa. These two organisms are frequently found as contaminants in cosmetic products. The samples were incubated for a 4-week period with weekly examinations for the growth of the organisms. At weekly intervals, the samples were also reinoculated with the test organisms. Presence of fungal growth was determined macroscopically while bacterial contamination was determined by streaking one 4-mm loopful (0.01ml) of the lotion onto the surface of trypticase glucose extract agar (Baltimore Biological Laboratories, Baltimore, MD) containing 0.005% triphenyl tetrazolium chloride and letheen antidote. Results of these tests showing the minimum inhibitory concentration through the 4-week incubation period are tabulated in Table IV and show, once again, that the compounds where R is methyl or ethyl show a broad spectrum activity for the preservation of cosmetic products against the type of fungus and bacterium most likely to cause problems in cosmetics.

The subject of the next assay is Pseudomonas aeruginosa. The assay is described as above. The assay is classed as cell-based. How it is done:
as §1, §2

Setting [1] is: Week 1, read-out: Minimum Inhibitory Concentration Week 1.
The mark [2] stands for this setting: Week 2, weekly reinoculation, read-out: Minimum Inhibitory Concentration Week 2.
The mark [3] stands for this setting: Week 3, weekly reinoculation, read-out: Minimum Inhibitory Concentration Week 3.
[4] abbreviates: Week 4, weekly reinoculation, read-out: Minimum Inhibitory Concentration Week 4.
[5] abbreviates: read-out: Minimum Inhibitory Concentration Week 1.
Setting [6] is: read-out: Minimum Inhibitory Concentration Week 2.
[7] abbreviates: read-out: Minimum Inhibitory Concentration Week 3.
The mark [8] stands for this setting: read-out: Minimum Inhibitory Concentration Week 4.

Converted amounts (≈) assume the structure as drawn. Read-outs that look alike come from different tables or passages of the source.

For the compound `CCSC=C(Cl)C#N` [Example 3, α-chloro-β-ethylthio-acrylonitrile], the MIC in the assay on Aspergillus niger (setting [1]) is below 7.8 µg/mL; with Aspergillus niger (setting [2]), below 7.8 µg/mL; with Aspergillus niger (setting [3]), below 7.8 µg/mL; with Aspergillus niger (setting [4]), below 7.8 µg/mL; with Pseudomonas aeruginosa (setting [5]), 250 to 500 µg/mL (≈ 1690 to 3390 µM); in the assay on Pseudomonas aeruginosa (setting [6]), 125 to 250 µg/mL (≈ 847 to 1690 µM). For the same compound, the MIC in the assay on Pseudomonas aeruginosa (setting [7]) and in the assay with Pseudomonas aeruginosa (setting [8]) was 125 to 250 µg/mL (≈ 847 to 1690 µM) throughout.

`CSC=C(Br)C#N` [Example 1, α-Bromo-β-methylthio-acrylonitrile]: the MIC in the assay on Aspergillus niger (setting [1]), with Aspergillus niger (setting [2]), with Aspergillus niger (setting [3]), in the assay on Aspergillus niger (setting [4]), with Pseudomonas aeruginosa (setting [5]) and in the assay on Pseudomonas aeruginosa (setting [6]) was below 7.8 µg/mL throughout. Besides, the MIC with Pseudomonas aeruginosa (setting [7]) and with Pseudomonas aeruginosa (setting [8]) was below 7.8 µg/mL throughout.

Regarding `CCSC=C(Br)C#N` [Example 4, α-bromo-β-ethylthio-acrylonitrile], the MIC was below 7.8 µg/mL with Aspergillus niger (setting [1]); below 7.8 µg/mL in the assay with Aspergillus niger (setting [2]); below 7.8 µg/mL in the assay with Aspergillus niger (setting [3]); below 7.8 µg/mL with Aspergillus niger (setting [4]); 31 to 62 µg/mL (≈ 161 to 323 µM) in the assay with Pseudomonas aeruginosa (setting [5]); 31 to 62 µg/mL (≈ 161 to 323 µM) in the assay with Pseudomonas aeruginosa (setting [6]). Moreover, the MIC with Pseudomonas aeruginosa (setting [7]) and with Pseudomonas aeruginosa (setting [8]) was 31 to 62 µg/mL (≈ 161 to 323 µM) each time.

Regarding `CCCCSC=C(Cl)C#N` [Example 6], the MIC with Pseudomonas aeruginosa (cosmetic lotion, P.a., Week 1, read-out: Minimum Inhibitory Concentration Week 1) is above 2000 µg/mL.

For `CCCSC=C(Cl)C#N` [Example 5], the MIC in the assay on Aspergillus niger (setting [1]) is 125 to 250 µg/mL (≈ 773 to 1550 µM); in the assay on Aspergillus niger (setting [2]), 125 to 250 µg/mL (≈ 773 to 1550 µM); in the assay on Aspergillus niger (setting [3]), 125 to 250 µg/mL (≈ 773 to 1550 µM); in the assay on Aspergillus niger (setting [4]), 125 to 250 µg/mL (≈ 773 to 1550 µM); with Pseudomonas aeruginosa (setting [5]) it was above 2000 µg/mL; in the assay on Pseudomonas aeruginosa (setting [6]), 1000 to 2000 µg/mL (≈ 6190 to 12400 µM). The MIC in the assay on Pseudomonas aeruginosa (setting [7]) fell in the range of 1000 to 2000 µg/mL (≈ 6190 to 12400 µM); in the assay on Pseudomonas aeruginosa (setting [8]) it was 500 to 1000 µg/mL (≈ 3090 to 6190 µM).

For the compound `CSC=C(Cl)C#N` [Example 2, α-Chloro-β-methylthio-acrylonitrile], the MIC in the assay on Aspergillus niger (setting [1]) was below 7.8 µg/mL; in the assay on Aspergillus niger (setting [2]) it was below 7.8 µg/mL; in the assay with Aspergillus niger (setting [3]) it was below 7.8 µg/mL; in the assay on Aspergillus niger (setting [4]), below 7.8 µg/mL; with Pseudomonas aeruginosa (setting [5]) it was 31 to 62 µg/mL (≈ 232 to 464 µM); in the assay with Pseudomonas aeruginosa (setting [6]) it was 15 to 31 µg/mL (≈ 112 to 232 µM). Further, the MIC in the assay with Pseudomonas aeruginosa (setting [7]) and with Pseudomonas aeruginosa (setting [8]) was 15 to 31 µg/mL (≈ 112 to 232 µM) in each case.
